According to patent US6703198B1, “Methods of diagnosing alagille syndrome” (The University of Washington, priority 1997, dated 2004):
Values joined by “and” are separate entries in the source; they are usually repeats but may differ in a detail not shown here. Identical values can stand only once. “Also recorded” adds a separate entry of the source. Where no end group is shown, it is not given here.

Legend:
[1] = tested on: full-length Notch1-expressing 32D cells; assay: G-CSF-induced granulocytic differentiation of full-length Notch1-expressing 32D myeloid progenitor clones in the presence of hJAGGED1 peptides; type: cell-based, mouse; conditions: 10 μM peptide, 20 ng/ml G-CSF, FIG. 4
Description: The ability of the hJAGGED1 HS-27a human stromal cell line to effect differentiation of hematopoietic progenitors was analyzed using the interleukin-3 (IL-3)-dependent myeloid cell line, 32D. The 32D cell line, which was derived from normal mouse bone marrow, is a heterogeneous cell line with individual cells having characteristics of myeloid cells at various early stages of maturation. 32D cells proliferate as undifferentiated blasts in the presence of IL-3, but differentiate into mature granulocytes when stimulated with granulocyte colony stimulating factor (G-CSF; Valtieri et al. Immunol. 138:3829-3835 (1987), which is incorporated herein by reference), thereby providing a system for analyzing factors that may affect myeloid differentiation.
The HS-27a, HS-23 and HS-5 human stromal cell lines were maintained in RPMI containing 10% FCS as described in Roecklein and Torok-Storb, supra, 1995. 32D cells were maintained in Iscove's Modified Dulbecco's Medium (IMDM) with 10% fetal bovine serum (FBS) and 10% WCM as a source of IL-3. For differentiation experiments, 32D cell lines were harvested in log phase, washed, counted, and replated at constant density (2×10^5 cells/ml, 4 ml/well) in 6-well plates in IMDM, 10% FBS, 0.5% WCM and 20 ng/ml recombinant human G-CSF from Amgen (Thousand Oaks, Calif.). Aliquots of […] were removed daily for analysis and replaced with fresh media. Viable cells were counted, and Wright stained cytospins were evaluated for granulocytic differentiation as follows. […] Criteria for granulocytic differentiation included nuclear segmentation, an increased cytoplasmic to nuclear ratio, and increased eosinophilia and granularity of the cytoplasm. […]
Three peptides corresponding to different regions of the hJAGGED1 molecule were analyzed for their effect on differentiation of Notch1-expressing 32D cells treated with G-CSF. […]
Peptide SEQ ID NO:9 (“J-A”) has the sequence […]. […] Differentiation of 32D cells in the presence of hJAGGED peptides was analyzed as described above. […]

[2] = tested on: mouse hematopoietic progenitor cells (Sca-1+ lin-); assay: Number of G-CFU formed from mouse hematopoietic progenitor cells treated with G-CSF and cell culture supernatant; type: cell-based; conditions: for Number of CFU-G-CSF, Average: average of samples 1-4, control BHK supernatant about 60
Description: A soluble fragment of hJAGGED1 (SEQ ID NO:7), which contains the extracellular domain of hJAGGED1 including the signal peptide, DSL region, EGF-like repeats and cysteine-rich region, was prepared by amplifying a portion of the hJAGGED1 cDNA with PCR primers 420 (SEQ ID NO:20; […]) and 421 (SEQ ID NO:21; […]). The hJAGGED1 cDNA fragment, corresponding to residues 1 to 1010, was subcloned into expression vector pDX to generate pDX-hJg1.Ex. After transfection into BHK and COS cells, the cell culture supernatant was assayed for the ability to effect the number of G-CFU formed from mouse hematopoietic progenitor cells ([…] lin^−), which were prepared by removing cells that stained with anti-Gr-1, anti-CD4, anti-CD11b, anti-CD2, anti-CD45R and anti-Ter-119 and then positively selecting Sca-1^+ cells with anti-Sca-1.

| Substance | differentiation of full-length Notch1-expressing 32D clones in the presence of G-CSF and peptide [1] | Number of CFU-G-CSF, Average ([2]; Sca-1+ lin- cells treated with G-CSF, listed as Supernatant of BHK cells transfected with pDX-hJg1.Ex) | Number of CFU-G-CSF, Average ([2]; Sca-1+ lin- cells treated with G-CSF, listed as supernatant from BHK cells transfected with the hJAGGED1 extracellular domain co) | granulocytic differentiation of mouse hematopoietic progenitor cells ([2]; conclusion from Table 2) | Number of CFU-G-CSF ([2]; individual samples, Sca-1+ lin- cells treated with G-CSF, BHK cell supernatant, listed as Supernatant of BHK cells transfected with pDX-hJg1.Ex) |
| --- | --- | --- | --- | --- | --- |
| CRQGCSPKHGSCKLPGDCRCQYG [peptide SEQ ID NO:10, residues 235 to 257 of hJAGGED1, part of EGF-repeat 1 in the extracellular domain] | comparable to that observed with G-CSF alone; also recorded: unaffected | – | – | – | – |
| CDDYYYGFGCNKFCRPR (cysteine pairing not given here) [peptide SEQ ID NO:9, 17-mer, residues 188 to 204 of hJAGGED1, portion of the DSL domain] | significantly inhibited | – | – | – | – |
| KRRKPGSHTHSASEDNTTN [peptide SEQ ID NO:11, residues 1096 to 1114 of hJAGGED1, hydrophilic portion of the intracellular domain] | comparable to that observed with G-CSF alone; also recorded: unaffected | – | – | – | – |
| hJAGGED1 fragment SEQ ID NO:7: soluble fragment of hJAGGED1, residues 1 to 1010 (extracellular domain), tested as supernatant of transfected BHK cells | – | 24 | about 24 | inhibits granulocytic differentiation | 19 and 34 and 20 and 23 |
